Measured values: patent US10544415B2, “Methods for producing enteroendocrine cells that make and secrete insulin” (The Trustees Of Columbia University In The City Of New York, priority 2010, dated 2020)

Assays:
[1] = target: KATP channel (Mus musculus, UniProt B2RUS7); settings: NKO gut segments, 1 hr; 10 nM glibenclamide or 0.5 mM diazoxide
Description: Adult intestine was stained in medium containing 0.12 mM Dithizone (DTZ) (10) and selected 5-inches-long DTZ+ fragments from NKO mice or anatomically matched control mice. The intestines were cut open and incubated in glucose-free DMEM supplemented with 10% FBS and 20 mM glucose for 30 min. At the end of the incubation, insulin and C peptide 2 content was measured in the medium by ELISA (Millipore). Collagenase-purified pancreatic islets from 14-week-old WT mice served as controls (5).
To determine whether Ggut Ins^+ cells are functionally competent to secrete insulin, we performed ex vivo assays of insulin secretion in response to glucose and KATP channel modulators, using DTZ staining to select gut segments enriched in Ins^+ cells from NKO mice and anatomically matched segments from control mice.
Adult intestine were strained in medium containing 0.12 mM Dithizone (DTZ) (Tuttle et al Nat Med, 2001) and selected 5-inches-long DTZ+ fragments from NKO mice or anatomically matched fragments from control WT mice. […] At the end of the incubation, we measured insulin and C-peptide 2 content in the medium by ELISA (Millipore). Collagenase-purified pancreatic islets from 14-week-old WT mice served as controls (Kitamura et al., MCB 2009). Experiments were carried out using adult intestines (n=4).

[2] = Insulin bioassay: acid-ethanol tissue extracts injected into newborn mice, blood glucose; assay type: in vivo, mouse
Description: Insulin bioassay. Acid-ethanol extracts were prepared from neonatal (P3) gut, liver, and pancreas (35). Tissue extract or recombinant human insulin (Humulin R, Eli Lilly) (10 U/ml in acid-ethanol) were mixed with either insulin neutralizing antibody (Thermo Scientific) or isotype-matched mouse IgG1 (Ebiosciences) for subcutaneous injections in 50 microliters volume. Glucose was measured immediately prior to and 5 minutes after injections.
To examine whether intestinal insulin secreted by Gut Ins+ cells is bioactive, acid-ethanol extracts from NKO gut were prepared, extracts were also prepared from gut, pancreas and liver of WT mice, and injected into newborn mice. Extracts from newborn NKO intestine lowered blood glucose by about 20%, similar to pancreatic extracts from age-matched control mice or recombinant human insulin (FIG. 3C). In contrast, extracts from control intestines or liver had no effect. The ability of NKO gut extracts (reflecting the presence of Gut Ins+ cells) to lower blood glucose was preempted by the addition of an insulin-neutralizing antibody, as was pancreatic extracts from control mice and recombinant insulin.

Chain of KATP channel (B2RUS7 1-1588): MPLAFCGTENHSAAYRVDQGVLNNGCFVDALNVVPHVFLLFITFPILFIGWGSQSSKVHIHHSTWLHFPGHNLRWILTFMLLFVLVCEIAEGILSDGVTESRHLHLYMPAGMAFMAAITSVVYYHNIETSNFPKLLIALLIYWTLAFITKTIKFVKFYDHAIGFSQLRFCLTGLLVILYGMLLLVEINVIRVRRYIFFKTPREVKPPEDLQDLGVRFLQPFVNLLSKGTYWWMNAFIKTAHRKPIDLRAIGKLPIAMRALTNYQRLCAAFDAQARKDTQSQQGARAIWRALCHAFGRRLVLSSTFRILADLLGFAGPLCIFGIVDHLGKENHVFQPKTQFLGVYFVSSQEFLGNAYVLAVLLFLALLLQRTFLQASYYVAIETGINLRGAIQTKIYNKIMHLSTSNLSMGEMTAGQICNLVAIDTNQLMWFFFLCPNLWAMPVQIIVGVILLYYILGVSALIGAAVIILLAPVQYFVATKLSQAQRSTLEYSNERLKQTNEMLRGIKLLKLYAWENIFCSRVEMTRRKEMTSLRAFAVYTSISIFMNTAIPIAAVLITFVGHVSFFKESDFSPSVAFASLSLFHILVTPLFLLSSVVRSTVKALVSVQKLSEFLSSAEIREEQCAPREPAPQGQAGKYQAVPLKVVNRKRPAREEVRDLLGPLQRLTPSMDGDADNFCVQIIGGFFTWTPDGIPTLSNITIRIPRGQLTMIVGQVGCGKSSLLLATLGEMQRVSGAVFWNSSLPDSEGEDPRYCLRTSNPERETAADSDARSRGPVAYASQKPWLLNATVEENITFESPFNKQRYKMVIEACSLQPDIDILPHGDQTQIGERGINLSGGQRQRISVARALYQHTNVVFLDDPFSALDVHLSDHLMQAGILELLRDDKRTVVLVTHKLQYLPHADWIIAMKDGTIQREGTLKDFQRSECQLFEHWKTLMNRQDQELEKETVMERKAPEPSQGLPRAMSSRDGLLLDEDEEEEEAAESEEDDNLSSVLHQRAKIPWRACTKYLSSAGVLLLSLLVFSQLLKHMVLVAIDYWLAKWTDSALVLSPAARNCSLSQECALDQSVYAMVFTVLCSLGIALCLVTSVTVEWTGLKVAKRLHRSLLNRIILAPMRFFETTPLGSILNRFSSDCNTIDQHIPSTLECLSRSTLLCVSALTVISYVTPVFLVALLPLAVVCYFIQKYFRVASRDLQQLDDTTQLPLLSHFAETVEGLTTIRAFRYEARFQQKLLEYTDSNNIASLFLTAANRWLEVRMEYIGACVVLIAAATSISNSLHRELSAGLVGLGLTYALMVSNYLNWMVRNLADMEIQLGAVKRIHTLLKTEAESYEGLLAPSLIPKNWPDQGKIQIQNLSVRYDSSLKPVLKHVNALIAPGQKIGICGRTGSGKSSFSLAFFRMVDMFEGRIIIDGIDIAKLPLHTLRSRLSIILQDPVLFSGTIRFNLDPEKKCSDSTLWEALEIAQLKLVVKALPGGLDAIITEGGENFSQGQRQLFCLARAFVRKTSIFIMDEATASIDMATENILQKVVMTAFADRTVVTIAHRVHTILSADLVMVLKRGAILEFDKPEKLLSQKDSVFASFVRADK
Chain of KATP channel (Q61743 whole entry partner): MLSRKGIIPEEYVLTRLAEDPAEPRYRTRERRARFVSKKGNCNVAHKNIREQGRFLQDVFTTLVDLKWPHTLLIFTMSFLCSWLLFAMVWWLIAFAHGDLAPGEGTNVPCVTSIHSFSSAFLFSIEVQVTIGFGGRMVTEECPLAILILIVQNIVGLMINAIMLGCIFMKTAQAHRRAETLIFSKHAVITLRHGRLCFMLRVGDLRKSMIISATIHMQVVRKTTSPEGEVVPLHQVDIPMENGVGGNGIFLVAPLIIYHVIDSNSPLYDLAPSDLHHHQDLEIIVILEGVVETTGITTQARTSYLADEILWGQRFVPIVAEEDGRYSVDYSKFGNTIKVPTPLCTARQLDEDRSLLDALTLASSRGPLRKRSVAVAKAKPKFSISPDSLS

Compound | effect on glucose-induced insulin release from NKO gut [1] | lowering of blood glucose (in words) ([2]; injected into newborn mice, compared with NKO intestine extract) | ability to lower blood glucose after addition of insulin-neutralizing antibody ([2]; sample mixed with insulin-neutralizing antibody)
CC1=NS(=O)(=O)c2cc(Cl)ccc2N1 [diazoxide] | blunted | – | –
recombinant human insulin: recombinant human insulin (Humulin R, Eli Lilly), 10 U/ml in acid-ethanol | – | similar | preempted
